We go through 21 compounds from article PMC4300089, “Structure-Guided Design of Selective Epac1 and Epac2 Agonists” (PLoS Biology, 2015).

The first test addresses T1, Epac2^Δ280 (Mus musculus, UniProt Q9EQZ6).
T1 construct: made in house
T1 sequence (Q9EQZ6 281-993 isoform Q9EQZ6-3): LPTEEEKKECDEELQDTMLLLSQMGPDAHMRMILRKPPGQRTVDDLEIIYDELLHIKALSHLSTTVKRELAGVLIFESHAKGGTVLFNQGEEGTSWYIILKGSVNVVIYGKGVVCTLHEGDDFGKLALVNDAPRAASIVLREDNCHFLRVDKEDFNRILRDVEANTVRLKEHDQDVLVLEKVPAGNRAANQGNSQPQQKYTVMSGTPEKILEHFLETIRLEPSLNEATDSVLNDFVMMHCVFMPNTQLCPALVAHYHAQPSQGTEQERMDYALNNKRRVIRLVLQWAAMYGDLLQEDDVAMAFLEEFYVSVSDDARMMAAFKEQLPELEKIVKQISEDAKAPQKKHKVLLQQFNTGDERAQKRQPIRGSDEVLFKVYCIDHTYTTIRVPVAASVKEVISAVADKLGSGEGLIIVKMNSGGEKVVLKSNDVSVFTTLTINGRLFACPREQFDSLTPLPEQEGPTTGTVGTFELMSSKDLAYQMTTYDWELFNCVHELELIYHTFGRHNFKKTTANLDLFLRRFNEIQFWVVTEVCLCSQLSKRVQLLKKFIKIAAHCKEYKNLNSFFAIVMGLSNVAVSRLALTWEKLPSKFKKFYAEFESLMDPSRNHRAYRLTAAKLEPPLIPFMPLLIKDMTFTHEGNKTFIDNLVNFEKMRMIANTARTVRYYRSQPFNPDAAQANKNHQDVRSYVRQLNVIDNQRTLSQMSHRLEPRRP
Put plainly: Epac activation assay (Rap1B•mGDP fluorescence nucleotide exchange), Epac2^Δ280. Format: biochemical. The settings on record: Epac2^Δ280. Here is the method: Murine Epac2 was used as all previous structural studies were performed with it.
The activity of Epac was determined by a fluorescence assay. […] The fluorescence intensity of Rap1B•mGDP is approximately twice that of free mGDP, and thus, nucleotide exchange can be observed as a decay in fluorescence upon the addition of excess unlabeled GDP.
For the compound `Nc1ncnc2c1nc(Cl)n2[C@@H]1O[C@@H]2COP(O)(=S)O[C@@H]2C1O` (stereo partly drawn) [S-020, Sp-8-Cl-cAMPS], the AC50 worked out at 0.4 µM.

Consider `Nc1ncnc2c1nc(SCc1ccc(Cl)cc1)n2[C@@H]1O[C@@H]2CO[P@](O)(=S)O[C@H]2[C@H]1O` [S-260, Sp-8-pCBnT-cAMPS], for which half-maximal activity (AC50) was put at 0.08 µM.

`CN(C)c1nc2c(N)ncnc2n1[C@@H]1O[C@@H]2CO[P@](O)(=S)O[C@H]2[C@H]1O` [S-070, Sp-8-DMeA-cAMPS] displayed a concentration at half-maximal activity (AC50) of 2.1 µM.

Consider `Nc1ncnc2c1nc(Sc1ccc(O)cc1)n2[C@@H]1O[C@@H]2CO[P@](O)(=S)O[C@H]2[C@H]1F` [S-201, Sp-8-pOHPT-2′-F-cAMPS], for which half-maximal activity (AC50) was put at 1.6 µM. The AC50 values of the last two compounds are within 1.5-fold of each other.

The compound `Nc1ncnc2c1nc(NCCO)n2[C@@H]1O[C@@H]2COP(=O)(O)O[C@H]2[C@H]1O` [L-007, 8-OHEA-cAMP] returned an AC50 of 2.6 µM.

As for `Nc1ncnc2c1nc([Se]Cc1ccccc1)n2[C@@H]1O[C@@H]2COP(=O)(O)O[C@H]2[C@H]1O` [L-028, 8-BnSe-cAMP], the AC50 came to 0.03 µM.

`CNc1nc2c(N)ncnc2n1[C@@H]1O[C@@H]2CO[P@](O)(=S)O[C@H]2[C@H]1F` [S-032, Sp-8-MeA-2′-F-cAMPS] displayed an AC50 of 9.5 µM.

In turn, `CO[C@@H]1[C@@H]2OP(=O)(O)OC[C@H]2O[C@H]1n1c(O)nc2c(N)ncnc21` [D-010, 8-OH-2′-O-Me-cAMP] had an AC50 of 6.8 µM.

`CCN(C)c1nc2c(N)ncnc2n1[C@@H]1O[C@@H]2CO[P@](O)(=S)O[C@H]2[C@H]1O` [S-080, Sp-8-EMeA-cAMPS] yielded an AC50 of 1.8 µM. Compared with the last compound, the AC50 is about 3.8-fold lower.

Compound `CO[C@@H]1[C@@H]2O[P@@](O)(=S)OC[C@H]2O[C@H]1n1c(Sc2ccc(O)cc2)nc2c(N)ncnc21` [S-202, Sp-8-pOHPT-2′-O-Me-cAMPS] registered a concentration at half-maximal activity (AC50) of 1.6 µM.

`CSc1nc2c(N)ncnc2n1[C@@H]1O[C@@H]2CO[P@](O)(=S)O[C@H]2[C@H]1F` [S-170, Sp-8-MeT-2′-F-cAMPS] came in with an AC50 of 6.9 µM.

`C[C@H](O)CNc1nc2c(N)ncnc2n1[C@@H]1O[C@@H]2COP(=O)(O)O[C@H]2[C@H]1O` [L-012, 8-(S-2-OHPrA)-cAMP] returned an AC50 of 8 µM.

Regarding `Nc1ncnc2c1nc(Br)n2[C@H]1C[C@@H]2O[P@@](O)(=S)OC[C@H]2O1` [S-011, Sp-8-Br-2′dcAMPS], the activity was half-maximal at 9 µM (AC50).

`[N-]=[N+]=Nc1nc2c(N)ncnc2n1[C@@H]1O[C@@H]2COP(=O)(O)O[C@H]2[C@H]1O` [L-004, 8-N3-cAMP] showed an AC50 of 0.2 µM.

As to `CCCCO[C@@H]1[C@@H]2OP(=O)(O)OC[C@H]2O[C@H]1n1cnc2c(N)ncnc21` [Z-006, 2′-O-Bu-cAMP], the AC50 was 120 µM.

In the case of `CC(C)N(C)c1nc2c(N)ncnc2n1[C@@H]1O[C@@H]2CO[P@](O)(=S)O[C@H]2[C@H]1O` [S-100, Sp-8-iPrMeA-cAMPS], the activity was half-maximal at 7 µM (AC50). Against the preceding compound, the AC50 is about 17-fold lower.

In the case of `O=P1(O)OC[C@H]2O[C@@H](n3cnc4c(Nc5ccccc5)ncnc43)[C@H](O)[C@@H]2O1` [N-003, N^6-Phe-cAMP], the concentration at half-maximal activity (AC50) turned out to be 0.3 µM.

Regarding `CO[C@@H]1[C@@H]2O[P@@](O)(=S)OC[C@H]2O[C@H]1n1c(SC)nc2c(N)ncnc21` [S-180, Sp-8-MeT-2′-O-Me-cAMPS], the AC50 came out at 3.7 µM. Against the preceding compound, the AC50 is about 12-fold higher.

`C=CCNc1nc2c(N)ncnc2n1[C@@H]1O[C@@H]2COP(=O)(O)O[C@H]2[C@H]1O` [L-011, 8-AllA-cAMP]: half-maximal activity (AC50) was put at 1.9 µM. Compared with the last compound, the AC50 is about 1.9-fold lower.

As to `C=CCO[C@@H]1[C@@H]2OP(=O)(O)OC[C@H]2O[C@H]1n1cnc2c(N)ncnc21` [Z-007, 2′-O-All-cAMP], the activity was half-maximal at 70 µM (AC50).

For the compound `Nc1ncnc2c1nc(SCc1ccccc1)n2[C@@H]1O[C@@H]2COP(=O)(O)O[C@H]2[C@H]1F` [D-011, 8-BnT-2′-F-cAMP], the AC50 came to 2.9 µM.

The same test, now with this note: Epac2^Δ280; maximal activity relative to cAMP.
For `Nc1ncnc2c1nc(Cl)n2[C@@H]1O[C@@H]2COP(O)(=S)O[C@@H]2C1O` (stereo partly drawn) [S-020, Sp-8-Cl-cAMPS], the Rel. kmax is 3.8.

In turn, `Nc1ncnc2c1nc(SCc1ccc(Cl)cc1)n2[C@@H]1O[C@@H]2CO[P@](O)(=S)O[C@H]2[C@H]1O` [S-260, Sp-8-pCBnT-cAMPS] had a Rel. kmax of 4.3.

Regarding `CN(C)c1nc2c(N)ncnc2n1[C@@H]1O[C@@H]2CO[P@](O)(=S)O[C@H]2[C@H]1O` [S-070, Sp-8-DMeA-cAMPS], the Rel. kmax was 9.3.

`Nc1ncnc2c1nc(Sc1ccc(O)cc1)n2[C@@H]1O[C@@H]2CO[P@](O)(=S)O[C@H]2[C@H]1F` [S-201, Sp-8-pOHPT-2′-F-cAMPS] gave a Rel. kmax of 1.0.

On to `Nc1ncnc2c1nc(NCCO)n2[C@@H]1O[C@@H]2COP(=O)(O)O[C@H]2[C@H]1O` [L-007, 8-OHEA-cAMP], for which the Rel. kmax was found to be 1.0.

In turn, `Nc1ncnc2c1nc([Se]Cc1ccccc1)n2[C@@H]1O[C@@H]2COP(=O)(O)O[C@H]2[C@H]1O` [L-028, 8-BnSe-cAMP] showed a Rel. kmax of 1.7.

Compound `CNc1nc2c(N)ncnc2n1[C@@H]1O[C@@H]2CO[P@](O)(=S)O[C@H]2[C@H]1F` [S-032, Sp-8-MeA-2′-F-cAMPS] displayed a Rel. kmax of 3.9.

Consider `CO[C@@H]1[C@@H]2OP(=O)(O)OC[C@H]2O[C@H]1n1c(O)nc2c(N)ncnc21` [D-010, 8-OH-2′-O-Me-cAMP], for which the Rel. kmax is on record as 0.5.

`CCN(C)c1nc2c(N)ncnc2n1[C@@H]1O[C@@H]2CO[P@](O)(=S)O[C@H]2[C@H]1O` [S-080, Sp-8-EMeA-cAMPS] returned a Rel. kmax of 7.6.

Regarding `CO[C@@H]1[C@@H]2O[P@@](O)(=S)OC[C@H]2O[C@H]1n1c(Sc2ccc(O)cc2)nc2c(N)ncnc21` [S-202, Sp-8-pOHPT-2′-O-Me-cAMPS], the Rel. kmax was 1.4.

`CSc1nc2c(N)ncnc2n1[C@@H]1O[C@@H]2CO[P@](O)(=S)O[C@H]2[C@H]1F` [S-170, Sp-8-MeT-2′-F-cAMPS] registered a Rel. kmax of 2.8.

In the case of `C[C@H](O)CNc1nc2c(N)ncnc2n1[C@@H]1O[C@@H]2COP(=O)(O)O[C@H]2[C@H]1O` [L-012, 8-(S-2-OHPrA)-cAMP], the Rel. kmax is 0.5.

The compound `Nc1ncnc2c1nc(Br)n2[C@H]1C[C@@H]2O[P@@](O)(=S)OC[C@H]2O1` [S-011, Sp-8-Br-2′dcAMPS] registered a Rel. kmax of 0.8.

In the case of `[N-]=[N+]=Nc1nc2c(N)ncnc2n1[C@@H]1O[C@@H]2COP(=O)(O)O[C@H]2[C@H]1O` [L-004, 8-N3-cAMP], the Rel. kmax is 0.7.

As for `CCCCO[C@@H]1[C@@H]2OP(=O)(O)OC[C@H]2O[C@H]1n1cnc2c(N)ncnc21` [Z-006, 2′-O-Bu-cAMP], the Rel. kmax came to 1.0.

Consider `CC(C)N(C)c1nc2c(N)ncnc2n1[C@@H]1O[C@@H]2CO[P@](O)(=S)O[C@H]2[C@H]1O` [S-100, Sp-8-iPrMeA-cAMPS], for which the Rel. kmax amounted to 4.5.

`O=P1(O)OC[C@H]2O[C@@H](n3cnc4c(Nc5ccccc5)ncnc43)[C@H](O)[C@@H]2O1` [N-003, N^6-Phe-cAMP] displayed a Rel. kmax of 0.6.

On to `CO[C@@H]1[C@@H]2O[P@@](O)(=S)OC[C@H]2O[C@H]1n1c(SC)nc2c(N)ncnc21` [S-180, Sp-8-MeT-2′-O-Me-cAMPS], for which the Rel. kmax came out at 3.2.

In turn, `C=CCNc1nc2c(N)ncnc2n1[C@@H]1O[C@@H]2COP(=O)(O)O[C@H]2[C@H]1O` [L-011, 8-AllA-cAMP] gave a Rel. kmax of 1.5.

For the compound `C=CCO[C@@H]1[C@@H]2OP(=O)(O)OC[C@H]2O[C@H]1n1cnc2c(N)ncnc21` [Z-007, 2′-O-All-cAMP], the Rel. kmax is recorded as 1.0.

Consider `Nc1ncnc2c1nc(SCc1ccccc1)n2[C@@H]1O[C@@H]2COP(=O)(O)O[C@H]2[C@H]1F` [D-011, 8-BnT-2′-F-cAMP], for which the Rel. kmax came out at 1.6.

Broadly, the AC50 is the concentration giving half of the maximal activity seen. A lower AC50 goes with greater potency.
